Measured values from US8575145B2, “Triazolopyridine compounds as PIM kinase inhibitors” (Array BioPharma Inc., priority 2008, dated 2013).
Structures can show the parent of a compound that is named as a salt.

What was measured:
PIM-1 = PIM-1 (Homo sapiens (Human), UniProt P11309); experiment: PIM-1 Enzyme Assay; format: biochemical; details: 35 μM ATP, 0.25 nM PIM-1
Outline: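 Radiometric kinase assay in 20 mM K+MOPS pH 7.4, 10 mM MgCl2, 0.005% Tween-20, 1 mM DTT, 2% DMSO final; 60 min at 22° C, stopped with H3PO4, product captured on P81 filter and counted by scintillation. IC50 from 4-parameter logistic fit of percent of control.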

[1] = test system: PC3 (Androgen independent prostate cancer); experiment: Cellular Proliferation Assay, cell line A; format: cell-based; details: PC3, 72 hours, CelltiterBlue; read-out: Cell Line A antiproliferative IC50
Protocol: (§1) The assay for determination of the antiproliferative activity of multiple Pim inhibitors in the JAK2-driven cell lines was conducted as follows. Cells were plated out to 96-well plates at an initial density of 10,000 cells/well in 95 pt. Compounds were prepared at […] in DMSO by conducting 3-fold serial dilutions to give a 10-point dosing curve having a high dose of 1000 μM. Aliquots (5 μt) of these dilutions were then transferred to the appropriate wells of the 96-well plates containing cells to yield a final DMSO concentration of 0.5%. The cells were then incubated with compound for 72 hours at 37° C., 5% CO2. CelltiterBlue reagent (Promega, Catalog #: G8080) was then added (20 μL/well) and incubated at 37° C., 5% CO2 for 1-8 hours depending on the cell line being analyzed. The plate was then quantified employing a fluorescence plate reader (Model: Gemini [Molecular Devices]; Settings: 560 nm (Ex)/590 nm (Em) 570 nm (cut-off) [CellTiter Blue Assay].
(§2) The values for each well were then converted to a percent of untreated control (POC). These POC values were then plotted as a function of compound concentration. A 4-parameter curve-fit analysis was performed for each compound dilution and an IC50 value was calculated from this curve.
(§3) Cell lines • A: PC3 (Androgen independent prostate cancer) • B: K562 (Ph+chronic myelogenous leukemia) • C: MV4-11 (Acute myelogenous leukemia) • D: BxPC3 (Pancreatic Cancer) • E: HepG2 (Hepatocellular Carcinoma) • F: BaF3 (Mouse pro-B-cell line) • G: BaF3 TEL-JAK2 (Mouse pro-B-cell transformed with TEL-JAK2 fusion) • H: BaF2 BCR-Ab1 (Mouse pro-B-cell transformed with BCR-Ab1 fusion)

[2] = test system: K562 (Ph+chronic myelogenous leukemia); experiment: Cellular Proliferation Assay, cell line B; format: cell-based; details: Homo sapiens; K562, 72 hours, CelltiterBlue; read-out: Cell Line B antiproliferative IC50
Protocol: as §1, §2, §3

[3] = test system: BaF3 (Mouse pro-B-cell line); experiment: Cellular Proliferation Assay, cell line F; format: cell-based; details: BaF3, 72 hours, CelltiterBlue, read-out: Cell Line F antiproliferative IC50
Protocol: as §1, §2, §3

[4] = test system: BaF3 TEL-JAK2 (Mouse pro-B-cell transformed with TEL-JAK2 fusion); experiment: Cellular Proliferation Assay, cell line G; format: cell-based; details: BaF3 TEL-JAK2, 72 hours, CelltiterBlue, read-out: Cell Line G antiproliferative IC50
Protocol: as §1, §2, §3

[5] = test system: BaF2 BCR-Ab1 (Mouse pro-B-cell transformed with BCR-Ab1 fusion); experiment: Cellular Proliferation Assay, cell line H; format: cell-based; details: BaF2 BCR-Ab1, 72 hours, CelltiterBlue, read-out: Cell Line H antiproliferative IC50
Protocol: as §1, §2, §3

[6] = target: GST-tagged recombinant full-length human PIM-2 (Homo sapiens (Human), UniProt Q9P1W9); experiment: PIM-2 Enzyme Assay; details: read-out: PIM-2 IC50; 4 μM ATP, […] PIM-2
Protocol: The amount of radiolabeled product is then measured by liquid scintillation counting. The final buffer conditions were as follows: 20 mM K^+MOPS, pH 7.4, 10 mM MgCl2, 0.005% Tween-20, 1 mM DTT. […] Incubations were carried out for 60 min at 22° C. and quenched with 75 μL of 200 mM H3PO4, filtered through a Whatman P81 plate and washed (1×200 μL and 5×100 μL ) with 200 mM H3PO4. Liquid scintillation cocktail (50 μL ) was then added per well, and the plate was counted for 30 s/well using a TopCount NXT.
One-μL aliquots of these were then transferred to the assay mixtures above to give a final concentration of DMSO of 2%. […] For each plate, percent of control (POC) values were calculated for each well. IC50's were estimated from the POC's using a standard 4-parameter logistic model. The IC50 is defined as the concentration of inhibitor at which the POC equals 50 for the fitted curve.

recombinant rat PIM-3 = recombinant rat PIM-3 (Rattus norvegicus (Rat), UniProt O70444); experiment: PIM-3 Enzyme Assay; details: read-out: PIM-3 IC50; 30 μM ATP, 0.5 nM PIM-3
[7] = test system: BxPC3 (Pancreatic Cancer); experiment: Cellular Proliferation Assay, cell line D; format: cell-based; details: Homo sapiens, BXPC-3; BxPC3, 72 hours, CelltiterBlue; read-out: Cell Line D antiproliferative IC50
Protocol: as §1, §2, §3

[8] = test system: HepG2 (Hepatocellular Carcinoma); experiment: Cellular Proliferation Assay, cell line E; format: cell-based; details: Homo sapiens; HepG2, 72 hours, CelltiterBlue; read-out: Cell Line E antiproliferative IC50
Protocol: as §1, §2, §3

GST-tagged recombinant full-length human PIM-2, sequence (Q9P1W9 whole entry): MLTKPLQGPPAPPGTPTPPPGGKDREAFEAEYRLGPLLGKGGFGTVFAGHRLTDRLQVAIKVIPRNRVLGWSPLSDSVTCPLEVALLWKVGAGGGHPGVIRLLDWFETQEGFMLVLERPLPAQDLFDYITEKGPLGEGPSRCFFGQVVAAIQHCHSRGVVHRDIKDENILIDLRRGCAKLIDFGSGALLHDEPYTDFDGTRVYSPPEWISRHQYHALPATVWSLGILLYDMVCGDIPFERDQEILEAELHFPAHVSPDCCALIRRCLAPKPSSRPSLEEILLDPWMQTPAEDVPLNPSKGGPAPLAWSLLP
PIM-1, sequence (P11309 whole entry, species assumed): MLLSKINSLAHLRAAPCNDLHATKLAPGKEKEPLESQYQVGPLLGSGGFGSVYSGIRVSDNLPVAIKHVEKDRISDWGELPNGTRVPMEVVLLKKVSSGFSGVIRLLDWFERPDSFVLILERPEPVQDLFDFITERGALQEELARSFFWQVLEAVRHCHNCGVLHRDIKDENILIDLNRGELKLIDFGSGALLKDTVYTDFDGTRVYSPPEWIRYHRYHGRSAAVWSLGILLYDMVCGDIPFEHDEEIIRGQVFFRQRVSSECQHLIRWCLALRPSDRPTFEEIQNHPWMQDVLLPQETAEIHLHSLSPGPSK

| Compound | IC50 (PIM-1) [nM] | IC50 [1] [nM] | IC50 [2] [nM] | IC50 [3] [nM] | IC50 [4] [nM] | IC50 [5] [nM] | IC50 [6] [nM] | IC50 (recombinant rat PIM-3) [nM] | IC50 [7] [nM] | IC50 [8] [nM] |
| --- | --- | --- | --- | --- | --- | --- | --- | --- | --- | --- |
| c1cc(NC2CCNCC2)c2nc(-c3nnc4ccccn34)ccc2c1 [Example 1, 2-([1,2,4]Triazolo[4,3-a]pyridin-3-yl)-N-(piperidin-4-yl)quinolin-8-amine di-trifloroacetate] | 1.6 | < 10000 | > 10000 | < 2000 | < 2000 | < 10000 | 1110 | 4.4 |  |  |
| N[C@H]1CC[C@H](Oc2cccc3ccc(-c4nnc5ccccn45)nc23)CC1 [Example 17, (trans)-4-(2-([1,2,4]Triazolo[4,3-a]pyridin-3-yl)quinolin-8-yloxy)cyclohexanamine] |  | < 2000 | < 10000 | < 2000 | < 2000 | < 2000 | 134 | 3 | < 10000 | < 10000 |
| CC(C)(COc1cc(F)cc2ccc(-c3nnc4ccccn34)nc12)[C@@H](O)CO [Example 112, (R)-4-(2-([1,2,4]triazolo[4,3-a]pyridin-3-yl)-6-fluoroquinolin-8-yloxy)-3,3-dimethylbutane-1,2-diol dihydrochloride] | 3.3 |  |  |  |  |  | 300 | 10.1 |  |  |
